What all share (assay type): in vivo
For experiment [1], the system named is Stellaria media. As to the kind of experiment: Weed control pre-emergence (greenhouse pot test). The settings on record: pre-emergence, 2,5 kg a.i./ha, visual rating after 3-4 weeks. An excerpt:
(§1) Die Schädigung der Unkrautpflanzen bzw. die Kulturpflanzenverträglichkeit wurde gemäß einem Schlüssel bonitiert, in dem die Wirksamkeit durch Wertzahlen von 0 - 5 ausgedrückt ist. Dabei bedeutet:
(§2) Samen bzw. Rhizomstücke von mono- und dikotylen Unkrautpflanzen wurden in Plasstiktöpfen (0 = 9 cm) in sandiger Lehmerde ausgelegt und mit Erde abgedeckt. Die in Form von benetzbaren Pulvern oder Emulsionskonzentraten formulierten erfindungsgemäßen Verbindungen wurden dann als wäßrige Suspensionen bzw. Emulsionen mit einer Wasseraufwandmenge von umgerechnet 600-800 1/ha in unterschiedlichen Dosierungen auf die Oberfläche der Abdeckerde appliziert. Nach der Behandlung wurden die Töpfe im Gewächshaus aufgestellt und unter guten Wachstumsbedingungen für die Unkrautpflanzen gehalten (Temperatur 23 plus/minus 1 Grad Celsius, relative Luftfeuchte 60-80 %).
(§3) Die optische Bonitur der Pflanzen- bzw. Auflaufschäden erfolgte nach dem Auflaufen der Versuchspflanzen nach einer Versuchszeit von 3-4 Wochen im Vergleich zu unbehandelten Kontrollen.

Experiment [2] relates to Echinochloa crus-galli. As to the kind of experiment: Weed control pre-emergence (greenhouse pot test). To be noted: pre-emergence, 2,5 kg a.i./ha, visual rating after 3-4 weeks.
Text: as §1, §2, §3

For experiment [3], the system named is Sinapis arvensis. The experiment in a line: Weed control post-emergence (greenhouse pot test). To be noted: post-emergence (three-leaf stage), 2,5 kg a.i./ha, visual rating after ca. 3-4 weeks.
Text: as §1
(§4) Samen bzw. Rhizomstüeke von mono- und dikotylen Unkräutern wurden in Plasstiktöpfen (φ= 9 cm) in sandigem Lehmboden ausgelegt, mit Erde abgedeckt und im Gewächshaus unter guten Wachstumsbedingungen angezogen. Drei Wochen nach der Aussaat wurden die Versuchspflanzen im Dreiblattstadium behandelt. Die als Spritzpulver bzw. als Eτulsionskonzentrate formulierten erfindungsgemäßen Verbindungen wurden in verschiedenen Dosierungen mit einer Wasseraufwandmenge von umgerechnet 600-800 l/ha auf die grünen Pflanzenteile gesprüht und nach ca. 3-4 Wochen Standzeit der Versuchspflanzen im Gewächshaus unter optimalen Wachstumsbedingungen (Temperatur 23°C +/- 1°C, relative Luftfeuchte 60-80 %) die Wirkung der Präparate optisch im Vergleich zu unbehandelten Kontrollen bonitiert.

The subject of experiment [4] is Chrysanthemum segetum. As to the kind of experiment: Weed control post-emergence (greenhouse pot test). To be noted: post-emergence (three-leaf stage), 2,5 kg a.i./ha, visual rating after ca. 3-4 weeks.
Text: as §1, §4

The subject of experiment [5] is Avena sativa. As to the kind of experiment: Weed control post-emergence (greenhouse pot test). The settings on record: post-emergence (three-leaf stage), 2,5 kg a.i./ha, visual rating after ca. 3-4 weeks.
Text: as §1, §4

The subject of experiment [6] is Sinapis arvensis. The experiment in a line: Weed control pre-emergence (greenhouse pot test). To be noted: pre-emergence, 2,5 kg a.i./ha, visual rating after 3-4 weeks.
Text: as §1, §2, §3

In experiment [7] the test system is Chrysanthemum segetum. The experiment in a line: Weed control pre-emergence (greenhouse pot test). The settings on record: pre-emergence, 2,5 kg a.i./ha, visual rating after 3-4 weeks.
Text: as §1, §2, §3

In experiment [8] the test system is Avena sativa. The experiment in a line: Weed control pre-emergence (greenhouse pot test). To be noted: pre-emergence, 2,5 kg a.i./ha, visual rating after 3-4 weeks.
Text: as §1, §2, §3

For experiment [9], the system named is Stellaria media. As to the kind of experiment: Weed control post-emergence (greenhouse pot test). The arrangement: key: 0: = ohne Wirkung bzw. Schaden; 1: = 0 - 20 % Wirkung bzw. Schaden; = 20 - 40 % Wirkung bzw. Schaden; 3: = 40 - 60 % Wirkung bzw. Schaden; 4: = 60 - 80 % Wirkung bzw. Schaden; 5: = 80 - 100 % Wirkung bzw. Schaden. To be noted: post-emergence (three-leaf stage), 2,5 kg a.i./ha, visual rating after ca. 3-4 weeks.
Text: as §1, §4

Experiment [10] relates to Echinochloa crus-galli. The experiment in a line: Weed control post-emergence (greenhouse pot test). The arrangement: key: 0: = ohne Wirkung bzw. Schaden; 1: = 0 - 20 % Wirkung bzw. Schaden; = 20 - 40 % Wirkung bzw. Schaden; 3: = 40 - 60 % Wirkung bzw. Schaden; 4: = 60 - 80 % Wirkung bzw. Schaden; 5: = 80 - 100 % Wirkung bzw. Schaden. The settings on record: post-emergence (three-leaf stage), 2,5 kg a.i./ha, visual rating after ca. 3-4 weeks.
Text: as §1, §4

Consider `CCOC(=O)C(C)OC(OC(=O)c1cc(Oc2c(Cl)cc(C(F)(F)F)cc2Cl)ccc1[N+](=O)[O-])C(Cl)(Cl)Cl` (stereo not drawn) [compound 34], for which the “Herbizide Wirkung im Vorauflauf STM” value in the experiment on Stellaria media [1] was 5 (= 80 - 100 % Wirkung bzw. Schaden). Also, the “Herbizide Wirkung im Vorauflauf ECG” value in the experiment with Echinochloa crus-galli [2] is reported as 1 (= 0 - 20 % Wirkung bzw. Schaden). Also, in the experiment on Sinapis arvensis [3], the “Herbizide Wirkung im Nachauflauf SIA” value is reported as 5 (= 80 - 100 % Wirkung bzw. Schaden). Further, in the experiment on Chrysanthemum segetum [4], the “Herbizide Wirkung im Nachauflauf CRS” value is 5 (= 80 - 100 % Wirkung bzw. Schaden). Moreover, in the experiment on Avena sativa [5], the “Herbizide Wirkung im Nachauflauf AS” value is reported as 5 (= 80 - 100 % Wirkung bzw. Schaden). In the experiment on Sinapis arvensis [6], the “Herbizide Wirkung im Vorauflauf SIA” value was 5 (= 80 - 100 % Wirkung bzw. Schaden). Besides, the “Herbizide Wirkung im Vorauflauf CRS” value in the experiment with Chrysanthemum segetum [7] is reported as 5 (= 80 - 100 % Wirkung bzw. Schaden). For the same compound, the “Herbizide Wirkung im Vorauflauf AS” value in the experiment with Avena sativa [8] is on record as 2 (= 20 - 40 % Wirkung bzw. Schaden). In addition, the “Herbizide Wirkung im Nachauflauf STM” value in the experiment with Stellaria media [9] was 5 (= 80 - 100 % Wirkung bzw. Schaden). In the experiment on Echinochloa crus-galli [10], the “Herbizide Wirkung im Nachauflauf ECG” value is recorded as 4 (= 60 - 80 % Wirkung bzw. Schaden).

Regarding `Cc1ncsc1COC(OC(=O)c1cc(Oc2ccc(C(F)(F)F)cc2Cl)ccc1[N+](=O)[O-])C(Cl)(Cl)Cl` (stereo not drawn) [compound 37], the “Herbizide Wirkung im Vorauflauf STM” value in the experiment on Stellaria media [1] is listed as 1 (= 0 - 20 % Wirkung bzw. Schaden). Moreover, the “Herbizide Wirkung im Vorauflauf ECG” value in the experiment on Echinochloa crus-galli [2] was 2 (= 20 - 40 % Wirkung bzw. Schaden). Also, the “Herbizide Wirkung im Nachauflauf SIA” value in the experiment on Sinapis arvensis [3] was 5 (= 80 - 100 % Wirkung bzw. Schaden). The “Herbizide Wirkung im Nachauflauf CRS” value with Chrysanthemum segetum [4] is reported as 4 (= 60 - 80 % Wirkung bzw. Schaden). In addition, in the experiment with Avena sativa [5], the “Herbizide Wirkung im Nachauflauf AS” value is recorded as 2 (= 20 - 40 % Wirkung bzw. Schaden). Also, the “Herbizide Wirkung im Vorauflauf SIA” value with Sinapis arvensis [6] is on record as 4 (= 60 - 80 % Wirkung bzw. Schaden). Besides, the “Herbizide Wirkung im Vorauflauf CRS” value in the experiment with Chrysanthemum segetum [7] is 3 (= 40 - 60 % Wirkung bzw. Schaden). Besides, the “Herbizide Wirkung im Vorauflauf AS” value in the experiment with Avena sativa [8] was 2 (= 20 - 40 % Wirkung bzw. Schaden). The “Herbizide Wirkung im Nachauflauf STM” value in the experiment with Stellaria media [9] came out at 0. Besides, the “Herbizide Wirkung im Nachauflauf ECG” value in the experiment on Echinochloa crus-galli [10] was 2 (= 20 - 40 % Wirkung bzw. Schaden).

As to `CP(C)(=O)COC(OC(=O)c1cc(Oc2ccc(C(F)(F)F)cc2Cl)ccc1[N+](=O)[O-])C(Cl)(Cl)Cl` (stereo not drawn) [compound 46], in the experiment on Stellaria media [1], the “Herbizide Wirkung im Vorauflauf STM” value is on record as 1 (= 0 - 20 % Wirkung bzw. Schaden). In addition, the “Herbizide Wirkung im Vorauflauf ECG” value with Echinochloa crus-galli [2] was 5 (= 80 - 100 % Wirkung bzw. Schaden). Besides, the “Herbizide Wirkung im Nachauflauf SIA” value with Sinapis arvensis [3] was 5 (= 80 - 100 % Wirkung bzw. Schaden). In addition, the “Herbizide Wirkung im Nachauflauf CRS” value with Chrysanthemum segetum [4] is 5 (= 80 - 100 % Wirkung bzw. Schaden). Moreover, in the experiment with Avena sativa [5], the “Herbizide Wirkung im Nachauflauf AS” value is 2 (= 20 - 40 % Wirkung bzw. Schaden). Also, in the experiment on Sinapis arvensis [6], the “Herbizide Wirkung im Vorauflauf SIA” value is 5 (= 80 - 100 % Wirkung bzw. Schaden). In addition, the “Herbizide Wirkung im Vorauflauf CRS” value in the experiment on Chrysanthemum segetum [7] was 5 (= 80 - 100 % Wirkung bzw. Schaden). For the same compound, the “Herbizide Wirkung im Vorauflauf AS” value in the experiment with Avena sativa [8] is reported as 4 (= 60 - 80 % Wirkung bzw. Schaden). Also, the “Herbizide Wirkung im Nachauflauf STM” value in the experiment on Stellaria media [9] is recorded as 2 (= 20 - 40 % Wirkung bzw. Schaden). Also, the “Herbizide Wirkung im Nachauflauf ECG” value with Echinochloa crus-galli [10] was 2 (= 20 - 40 % Wirkung bzw. Schaden).

For the origin of these results see patent EP0217101A1, “Substituted diphenyl ethers, process for their preparation and their use as herbicides” (HOECHST AKTIENGESELLSCHAFT, priority 1985, dated 1987).
